We go through 11 compounds from paper PMC9278437 (Journal of Enzyme Inhibition and Medicinal Chemistry, 2022).

In assay [1] the test system is breast cancer (MCF-7) cell line. As to the kind of experiment: In vitro anti-proliferative activity, MTT assay, MCF-7. The format is cell-based, human. The note with it: for IC50: Homo sapiens, MCF7, 48 h, read-out: In vitro IC50 (nM) Mean ± SD MCF-7, MTT, 48 h, mean ± SD, n = 3; for In vitro IC50 (nM) Mean ± SD MCF-7: MTT, 48 h, n = 3.
Assay [2] deals with hepatocellular carcinoma (HepG-2) cell line. Description: In vitro anti-proliferative activity, MTT assay, HepG-2. Format: cell-based, human. The note with it: for IC50: Homo sapiens, HepG2, 48 h, read-out: In vitro IC50 (nM) Mean ± SD HepG-2; for In vitro IC50 (nM) Mean ± SD HepG-2: MTT, 48 h, n = 3.
Assay [3] has as its target CDK2/cyclin A2 (Homo sapiens, UniProt P24941). As to the kind of experiment: biochemical.
The subject of assay [4] is colorectal carcinoma (HCT-116) cell line. Description: In vitro anti-proliferative activity, MTT assay, HCT-116. To be noted: 48 h, n = 3. The format is cell-based, human. (Tetrazolium dyes change colour on reduction, which living cells bring about.)

Take `N=c1c2cnn(C(=O)CNc3ccc(F)cc3)c2ncn1N` [Compound 4, 1-(5-Amino-4-imino-4,5-dihydro-1H-pyrazolo[3,4-d]pyrimidin-1-yl)-2-((4-fluorophenyl)amino)ethan-1-one]: the IC50 (in general, the point on the concentration scale where inhibition reaches its midpoint) is 150 ± 1.5 nM in assay [1], 603 ± 1.9 nM in assay [2] and 1340 ± 21 nM in assay [3].

As for `N#CCSc1nc2c3cnn(C(=O)CNc4ccc(F)cc4)c3ncn2n1` [Compound 8, 2-((7-((4-Fluorophenyl)glycyl)-7H-pyrazolo[4,3-e][1,2,4]triazolo[1,5-c]pyrimidin-2-yl)thio)acetonitrile], the IC50 in assay [1] was determined as 72 ± 0.53 nM; in assay [2], 8 ± 0.34 nM; in assay [3] it was 1060 ± 59 nM. Moreover, the “In vitro IC50 (nM) Mean ± SD HepG-2” value in assay [2] is reported as “potent activity”.

As for `N=c1c2cnn(C(=O)CNc3ccc(F)cc3)c2ncn1N[C@@H]1O[C@H](CO)[C@@H](O)[C@H](O)[C@H]1O` [Compound 5, 1-(4-Imino-5-((ß-D-glucopyranosyl)amino)-4,5-dihydro-1H-pyrazolo[3,4-d]pyrimidin-1-yl)-2-((4-fluorophenyl)amino)ethan-1-one], the IC50 in assay [1] is 663 ± 1.4 nM; in assay [2], 690 ± 0.48 nM; in assay [3], 2050 ± 50 nM.

Turning to `N=c1c2cnn(C(=O)CNc3ccc(F)cc3)c2ncn1N[C@@H]1OC[C@@H](O)[C@H](O)[C@H]1O` [Compound 6, 1-(4-Imino-5-((ß-D-xylopyranosyl)amino)-4,5-dihydro-1H-pyrazolo[3,4-d]pyrimidin-1-yl)-2-((4-fluorophenyl)amino)ethan-1-one], the IC50 is 621 ± 2.7 nM in assay [1], 98 ± 0.78 nM in assay [2] and 559 ± 13 nM in assay [3].

For `CC(=O)OCC(CSc1nc2c3cnn(C(=O)CNc4ccc(F)cc4)c3ncn2n1)OC(C)=O` (stereo not drawn) [Compound 11, 3-((7-((4-Fluorophenyl)glycyl)-7H-pyrazolo[4,3-e][1,2,4]triazolo[1,5-c]pyrimidin-2-yl)thio)propane-1,2-diyl diacetate], in assay [1], the IC50 came out at 63 ± 1.1 nM and the “In vitro IC50 (nM) Mean ± SD MCF-7” value is recorded as “good activity”. In addition, in assay [2], the IC50 stood at 49 ± 0.17 nM and the “In vitro IC50 (nM) Mean ± SD HepG-2” value is given as “moderate activity”. Also, the “In vitro IC50 (nM) Mean ± SD HCT-116” value in assay [4] is on record as “most potent cytotoxic results”. The compound further gave an IC50 in assay [3] of 89 ± 5 nM.

Take `COC(CSc1nc2c3cnn(C(=O)CNc4ccc(F)cc4)c3ncn2n1)OC` [Compound 9, 1-(2-((2,2-Dimethoxyethyl)thio)-7H-pyrazolo[4,3-e][1,2,4]triazolo[1,5-c]pyrimidin-7-yl)-2-((4-fluorophenyl)amino)ethan-1-one]: the IC50 in assay [1] was determined as 60 ± 0.49 nM; in assay [2], 690 ± 1.6 nM; in assay [3] it was 881 ± 49 nM. The “In vitro IC50 (nM) Mean ± SD HepG-2” value in assay [2] is “no activity”.

Regarding `CC(=O)OCCSc1nc2c3cnn(C(=O)CNc4ccc(F)cc4)c3ncn2n1` [Compound 13, 2-((7-((4-Fluorophenyl)glycyl)-7H-pyrazolo[4,3-e][1,2,4]triazolo[1,5-c]pyrimidin-2-yl)thio)ethyl acetate], in assay [1], the IC50 was found to be 55 ± 0.43 nM and the “In vitro IC50 (nM) Mean ± SD MCF-7” value was “good activity”. Further, in assay [2], the concentration for half-maximal inhibition (IC50) amounted to 74 ± 1.1 nM and the “In vitro IC50 (nM) Mean ± SD HepG-2” value is reported as “moderate activity”. Further, the “In vitro IC50 (nM) Mean ± SD HCT-116” value in assay [4] is “most potent cytotoxic results”. In assay [3], this compound displayed an IC50 of 130 ± 7 nM.

As to `CNC(=O)c1cc(Oc2ccc(NC(=O)Nc3ccc(Cl)c(C(F)(F)F)c3)cc2)ccn1` [Sorafenib, reference compound], the IC50 in assay [1] was found to be 144 ± 0.47 nM; in assay [2], 19 ± 0.29 nM.

With `O=C(CNc1ccc(F)cc1)n1ncc2c1ncn1nc(SCC(O)CO)nc21` (stereo not drawn) [Compound 10, 1-{2-[(2,3-Dihydroxypropyl)thio]-7H-pyrazolo[4,3-e][1,2,4]triazolo[1,5-c]pyrimidin-7-yl}-2-((4-fluorophenyl)amino)ethan-1-one], the IC50 worked out at 95 ± 1.9 nM in assay [1], 987 ± 2 nM in assay [2] and 506 ± 11 nM in assay [3]. In addition, the “In vitro IC50 (nM) Mean ± SD MCF-7” value in assay [1] is given as “potent activity”.

`O=C(CNc1ccc(F)cc1)n1ncc2c1ncn1[nH]c(=S)nc21` [Compound 7, 1-(2-Thioxo-2,3-dihydro-7H-pyrazolo[4,3-e][1,2,4]triazolo[1,5-c]pyrimidin-7-yl)-2-((4-fluorophenyl)amino)ethan-1-one]: the results for the IC50 in assay [1], in assay [2] and in assay [3] were 937 ± 0.93 nM, 63 ± 0.11 nM and 274 ± 5 nM, respectively. Besides, the “In vitro IC50 (nM) Mean ± SD HepG-2” value in assay [2] is on record as “moderate activity”.

As for `O=C(CNc1ccc(F)cc1)n1ncc2c1ncn1nc(SCCO)nc21` [Compound 12, 1-(2-((2-Hydroxyethyl)thio)-7H-pyrazolo[4,3-e][1,2,4]triazolo[1,5-c]pyrimidin-7-yl)-2-((4-fluorophenyl)amino)ethan-1-one], in assay [1], the IC50 came out at 613 ± 0.33 nM and the “In vitro IC50 (nM) Mean ± SD MCF-7” value was “inactive”. Also, in assay [2], the IC50 was 928 ± 0.97 nM and the “In vitro IC50 (nM) Mean ± SD HepG-2” value is “inactive”. Also, the “In vitro IC50 (nM) Mean ± SD HCT-116” value in assay [4] was “inactive”. The compound also had an IC50 in assay [3] of 961 ± 19 nM.
